In patent US6337417B1, “N-phenyltetrahydrophthalamic acid derivatives, methods of producing same, and herbicides containing same as effective components” (Central Glass Co., Ltd., priority 1994, dated 2002):

Experiments:
Assay type in all cases: in vivo
Parameters in all cases: key: 5: completely killed; 4: seriously injured; 3: considerably injured; 2: somewhat injured; 1: slightly injured; 0: not injured (normally grown)
[1] = system: hotarui (bulrush, Scirpus juncoides); assay: Experiment 4 flooded soil treatment: hotarui; conditions: 4 weeks after treatment
From the text: (§1) Paddy soil (clay loam) was put into a pot so as to have a surface area of 1/15500 ares. Uniformly mixed seeds of several kinds of weeds, viz., nobie (barnyardgrass, Echinochloa spp.), broad-leaved weeds, hotarui (bulrush, Scirpus juncoides) and tamagayatsuri (small-flowered umbrellaplant, Cyperus difformis), were sown in the surface layer of the soil in each pot, and then paddy rice seedlings at the two- or three-leaved stage were transplanted into each pot to a depth of 2 cm, and water was fed into each pot so as to provide a 3 cm deep water layer on the soil surface. After 3 days, in other words at the initial stage of germination of nobie (barnyardgrass, Echinochloa spp.), a predetermined amount of a selected compound obtained in a manner analogous to Example 11 in the form of diluted aqueous solution was dropped into the water layer in each pot. After that, the pots were kept in a glass chamber to allow the paddy rice and the weeds to grow, and after the lapse of 4 weeks from the treatment with the selected compounds, the herbicidal effects and the degree of injury to the paddy rice were evaluated. The evaluation of the herbicidal effects was similarly conducted as to that of Experiment 1.

[2] = system: ooinutade (pale smartweed, Persicaria lapathifolia); assay: Experiment 6 foliage treatment: ooinutade; conditions: foliage spray of wettable powder suspension, evaluated 4 weeks after treatment
Method: (§2) Upon seedling stage (two- or three-leaved stage) of ichibi (velvetleaf, Abutilon theophrasti), onamomi (heartleaf cocklebur, Xanthium strumarium) (4 L stage), noasagao (blue morningglory, Ipomoea indica) and ooinutade (pale smartweed, Persicaria lapathifolia) which were grown on a cultivated soil put in pots of 1/8850 ares, a selected compound obtained in a manner analogous to Example 11, in suspended wettable powder, was sprayed to each plant. After that, the pots were kept in a glass chamber to allow each plant to grow, and after the lapse of 4 weeks from the treatment with the selected compounds the herbicidal effects were evaluated. The evaluation of the herbicidal effects was similarly conducted as that of Experiment 1.

[3] = system: nobie (barnyardgrass, Echinochloa spp.); assay: Experiment 4 flooded soil treatment: nobie; conditions: 4 weeks after treatment
From the text: as §1

[4] = system: onamomi (heartleaf cocklebur, Xanthium strumarium); assay: Experiment 6 foliage treatment: onamomi; conditions: foliage spray of wettable powder suspension, evaluated 4 weeks after treatment
Method: as §2

[5] = system: ichibi (velvetleaf, Abutilon theophrasti); assay: Experiment 6 foliage treatment: ichibi; conditions: foliage spray of wettable powder suspension, evaluated 4 weeks after treatment
Method: as §2

[6] = system: tamagayatsuri (small-flowered umbrellaplant, Cyperus difformis); assay: Experiment 4 flooded soil treatment: tamagayatsuri; conditions: 4 weeks after treatment
From the text: as §1

broad-leaved weeds = assay: Experiment 4 flooded soil treatment: broad-leaved weeds; conditions: 4 weeks after treatment
From the text: as §1

paddy rice = assay: Experiment 4 flooded soil treatment: injury to paddy rice; conditions: 4 weeks after treatment
From the text: as §1

[7] = system: mehishiba (henry crabgrass, Digitaria cliaris); assay: Experiment 5 foliage treatment: mehishiba; conditions: foliage spray of wettable powder suspension, evaluated 4 weeks after treatment
Method: (§3) Upon seedling stage (two- or three-leaved stage) of rice, cockspur (Panicum crus-galli), garden radish, aobiyu (slender amaranth, Amaranthus viridis) and mehishiba (henry crabgrass, Digitaria cliaris) which were grown on a cultivated soil put in pots of 1/15500 ares, a selected compound obtained in a manner analogous to Example 11, in suspended wettable powder, was sprayed to each plant. After that, the pots were kept in a glass chamber to allow each plant to grow, and after the lapse of 4 weeks from the treatment with the selected compounds the herbicidal effects were evaluated. The evaluation of the herbicidal effects was similarly conducted as that of Experiment 1.

[8] = system: cockspur (Panicum crus-galli); assay: Experiment 5 foliage treatment: cockspur; conditions: foliage spray of wettable powder suspension, evaluated 4 weeks after treatment
Method: as §3

rice = assay: Experiment 5 foliage treatment: rice; conditions: foliage spray of wettable powder suspension, evaluated 4 weeks after treatment
Method: as §3

[9] = system: noasagao (blue morningglory, Ipomoea indica); assay: Experiment 6 foliage treatment: noasagao; conditions: foliage spray of wettable powder suspension, evaluated 4 weeks after treatment
Method: as §2

[10] = system: aobiyu (slender amaranth, Amaranthus viridis); assay: Experiment 5 foliage treatment: aobiyu; conditions: foliage spray of wettable powder suspension, evaluated 4 weeks after treatment
Method: as §3

garden radish = assay: Experiment 5 foliage treatment: garden radish; conditions: foliage spray of wettable powder suspension, evaluated 4 weeks after treatment
Method: as §3

N-[4-chloro-2-fluoro-5-(1-methylpropargyloxy)phenyl]-N-nicotinyl-3,4,5,6-tetrahydrophthalamic acid methyl ester [compound 57]
4.5: Herbicidal Effect hotarui ([1]; 3.13 g/10a) | Herbicidal Effect hotarui ([1]; 6.25 g/10a)
0: Injury of Paddy (paddy rice; 3.13 g/10a)
1: Herbicidal Effect cockspur ([8]; 40 g/10a) | Herbicidal Effect rice (rice; 40 g/10a) | Herbicidal Effect rice (rice; 80 g/10a)
4: Herbicidal Effect onamomi ([4]; 4 g/10a) | Herbicidal Effect onamomi ([4]; 8 g/10a) | Herbicidal Effect mehishiba ([7]; 40 g/10a) | Herbicidal Effect mehishiba ([7]; 80 g/10a) | Herbicidal Effect noasagao ([9]; 4 g/10a) | Herbicidal Effect noasagao ([9]; 8 g/10a)
3: Herbicidal Effect cockspur ([8]; 80 g/10a)
0.5: Injury of Paddy (paddy rice; 6.25 g/10a)
5: Herbicidal Effect ooinutade ([2]; 4 g/10a) | Herbicidal Effect ooinutade ([2]; 8 g/10a) | Herbicidal Effect nobie ([3]; 3.13 g/10a) | Herbicidal Effect nobie ([3]; 6.25 g/10a) | Herbicidal Effect ichibi ([5]; 4 g/10a) | Herbicidal Effect ichibi ([5]; 8 g/10a) | Herbicidal Effect tamagayatsuri ([6]; 3.13 g/10a) | Herbicidal Effect tamagayatsuri ([6]; 6.25 g/10a) | Herbicidal Effect broad-leaved weed (broad-leaved weeds; 3.13 g/10a) | Herbicidal Effect broad-leaved weed (broad-leaved weeds; 6.25 g/10a) | Herbicidal Effect aobiyu ([10]; 40 g/10a) | Herbicidal Effect aobiyu ([10]; 80 g/10a) | Herbicidal Effect garden radish (garden radish; 40 g/10a) | Herbicidal Effect garden radish (garden radish; 80 g/10a)

C#CC(C)Oc1cc(N(C(=O)C2=C(C(=O)OCCOCC)CCCC2)C(=O)c2cccnc2)c(F)cc1Cl (stereo not shown) [compound 60]
4: Herbicidal Effect mehishiba ([7]; 40 g/10a) | Herbicidal Effect rice (rice; 80 g/10a)
4.5: Herbicidal Effect hotarui ([1]; 3.13 g/10a) | Herbicidal Effect hotarui ([1]; 6.25 g/10a)
0.5: Injury of Paddy (paddy rice; 3.13 g/10a) | Injury of Paddy (paddy rice; 6.25 g/10a)
1: Herbicidal Effect cockspur ([8]; 40 g/10a) | Herbicidal Effect cockspur ([8]; 80 g/10a)
2: Herbicidal Effect rice (rice; 40 g/10a)
5: Herbicidal Effect ooinutade ([2]; 4 g/10a) | Herbicidal Effect ooinutade ([2]; 8 g/10a) | Herbicidal Effect nobie ([3]; 3.13 g/10a) | Herbicidal Effect nobie ([3]; 6.25 g/10a) | Herbicidal Effect onamomi ([4]; 4 g/10a) | Herbicidal Effect onamomi ([4]; 8 g/10a) | Herbicidal Effect ichibi ([5]; 4 g/10a) | Herbicidal Effect ichibi ([5]; 8 g/10a) | Herbicidal Effect tamagayatsuri ([6]; 3.13 g/10a) | Herbicidal Effect tamagayatsuri ([6]; 6.25 g/10a) | Herbicidal Effect broad-leaved weed (broad-leaved weeds; 3.13 g/10a) | Herbicidal Effect broad-leaved weed (broad-leaved weeds; 6.25 g/10a) | Herbicidal Effect mehishiba ([7]; 80 g/10a) | Herbicidal Effect noasagao ([9]; 4 g/10a) | Herbicidal Effect noasagao ([9]; 8 g/10a) | Herbicidal Effect aobiyu ([10]; 40 g/10a) | Herbicidal Effect aobiyu ([10]; 80 g/10a) | Herbicidal Effect garden radish (garden radish; 40 g/10a) | Herbicidal Effect garden radish (garden radish; 80 g/10a)

COC(=O)C1=C(C(=O)N(C(=O)c2cccnc2)c2cc(C(=O)OC)c(Cl)cc2F)CCCC1 [compound 64]
2: Herbicidal Effect mehishiba ([7]; 80 g/10a)
0.5: Injury of Paddy (paddy rice; 6.25 g/10a)
5: Herbicidal Effect ooinutade ([2]; 4 g/10a) | Herbicidal Effect ooinutade ([2]; 8 g/10a) | Herbicidal Effect nobie ([3]; 3.13 g/10a) | Herbicidal Effect nobie ([3]; 6.25 g/10a) | Herbicidal Effect onamomi ([4]; 8 g/10a) | Herbicidal Effect ichibi ([5]; 4 g/10a) | Herbicidal Effect ichibi ([5]; 8 g/10a) | Herbicidal Effect broad-leaved weed (broad-leaved weeds; 3.13 g/10a) | Herbicidal Effect broad-leaved weed (broad-leaved weeds; 6.25 g/10a) | Herbicidal Effect noasagao ([9]; 8 g/10a) | Herbicidal Effect aobiyu ([10]; 40 g/10a) | Herbicidal Effect aobiyu ([10]; 80 g/10a) | Herbicidal Effect garden radish (garden radish; 40 g/10a) | Herbicidal Effect garden radish (garden radish; 80 g/10a)
4: Herbicidal Effect hotarui ([1]; 3.13 g/10a) | Herbicidal Effect hotarui ([1]; 6.25 g/10a) | Herbicidal Effect onamomi ([4]; 4 g/10a) | Herbicidal Effect tamagayatsuri ([6]; 3.13 g/10a) | Herbicidal Effect tamagayatsuri ([6]; 6.25 g/10a) | Herbicidal Effect noasagao ([9]; 4 g/10a)
1: Herbicidal Effect mehishiba ([7]; 40 g/10a) | Herbicidal Effect cockspur ([8]; 40 g/10a) | Herbicidal Effect cockspur ([8]; 80 g/10a) | Herbicidal Effect rice (rice; 40 g/10a) | Herbicidal Effect rice (rice; 80 g/10a)
0: Injury of Paddy (paddy rice; 3.13 g/10a)

C#CC(C)Oc1cc(N(C(=O)C2=C(C(=O)OC)CCCC2)C(=O)c2cncc(C(=O)OC)c2)c(F)cc1Cl (stereo not shown) [compound 67]
1: Herbicidal Effect mehishiba ([7]; 40 g/10a) | Herbicidal Effect mehishiba ([7]; 80 g/10a) | Herbicidal Effect cockspur ([8]; 40 g/10a) | Herbicidal Effect cockspur ([8]; 80 g/10a) | Herbicidal Effect rice (rice; 40 g/10a) | Herbicidal Effect rice (rice; 80 g/10a)
0.5: Injury of Paddy (paddy rice; 3.13 g/10a) | Injury of Paddy (paddy rice; 6.25 g/10a)
4: Herbicidal Effect hotarui ([1]; 3.13 g/10a) | Herbicidal Effect onamomi ([4]; 4 g/10a)
5: Herbicidal Effect hotarui ([1]; 6.25 g/10a) | Herbicidal Effect ooinutade ([2]; 4 g/10a) | Herbicidal Effect ooinutade ([2]; 8 g/10a) | Herbicidal Effect nobie ([3]; 3.13 g/10a) | Herbicidal Effect nobie ([3]; 6.25 g/10a) | Herbicidal Effect onamomi ([4]; 8 g/10a) | Herbicidal Effect ichibi ([5]; 4 g/10a) | Herbicidal Effect ichibi ([5]; 8 g/10a) | Herbicidal Effect tamagayatsuri ([6]; 3.13 g/10a) | Herbicidal Effect tamagayatsuri ([6]; 6.25 g/10a) | Herbicidal Effect broad-leaved weed (broad-leaved weeds; 3.13 g/10a) | Herbicidal Effect broad-leaved weed (broad-leaved weeds; 6.25 g/10a) | Herbicidal Effect noasagao ([9]; 4 g/10a) | Herbicidal Effect noasagao ([9]; 8 g/10a) | Herbicidal Effect aobiyu ([10]; 40 g/10a) | Herbicidal Effect aobiyu ([10]; 80 g/10a) | Herbicidal Effect garden radish (garden radish; 40 g/10a) | Herbicidal Effect garden radish (garden radish; 80 g/10a)
